Residues, ends and D or L forms follow the SMILES beside them. *: point of attachment. Palmitoyl = CCCCCCCCCCCCCCCC(=O)*
Columns and labels:
[1] = test system: TRPV6 G488R; experiment: NFAT screen, TRPV6 G488R; assay type: cell-based, human; conditions: HEK293 cells; 5 μM cis-22a, 2 h, vs DMSO
Experimental: (§1) N-terminally TagRFP-labeled human TRPV6 (725 aa) was kindly provided by R. Bhardwaj and M. Hediger (University of Bern, Bern, Switzerland). This variant is translated from the first ATG codon and thus deviates from the non-ATG-initiated protein which is expressed in vivo (accession number NM_018646.6) by lacking 40 amino acids of the very N-terminus. For N-terminal labeling with EYFP, TRPV6 was cloned into pEYFP-C1 (Clontech) via EcoRI and SacII restriction sites. […]
(§2) After incubation, cover slips were carefully rinsed with phenol red-free DMEM supplemented with the compound and dosage corresponding to the previous incubation, which was then also present during imaging. […] Subcellular NFAT localization of TRPV6 expressing cells was again monitored on an Axiovert 135 inverted microscope (Zeiss, Oberkochen, Germany), as described in more detail before. […] Images were analyzed using Matlab2018a, differentiating between three cell populations based on the ratio of CFP emission intensity originating from the nucleus and the cytosol, similar to Schober et al. (2019).

[2] = test system: TRPV6 D580A; experiment: NFAT screen, TRPV6 D580A; assay type: cell-based, human; conditions: HEK293 cells; 5 μM cis-22a, 2 h, vs DMSO
Experimental: as §1, §2

[3] = test system: TRPV6 D580K; experiment: NFAT screen, TRPV6 D580K; assay type: cell-based, human; conditions: HEK293 cells; 5 μM cis-22a, 2 h, vs DMSO
Experimental: as §1, §2

[4] = test system: TRPV6 W583F; experiment: NFAT screen, TRPV6 W583F; assay type: cell-based, human; conditions: HEK293 cells; 5 μM cis-22a, 2 h, vs DMSO
Experimental: as §1, §2

[5] = test system: TRPV6 G579A; experiment: NFAT screen, TRPV6 G579A; assay type: cell-based, human; conditions: HEK293 cells; 5 μM cis-22a, 2 h; homogeneous localization preferred already without cis-22a
Experimental: as §1, §2

[6] = test system: TRPV6 H582A; experiment: NFAT screen, TRPV6 H582A; assay type: cell-based, human; conditions: HEK293 cells; 5 μM cis-22a, 2 h, vs DMSO; analysable cells hardly present
Experimental: as §1, §2

[7] = test system: TRPV6 W583A; experiment: NFAT screen, TRPV6 W583A; assay type: cell-based, human; conditions: HEK293 cells; 5 μM cis-22a, 2 h, vs DMSO; analysable cells hardly present
Experimental: as §1, §2

[8] = test system: TRPV6 R470A W583F; experiment: NFAT screen, TRPV6 R470A W583F; assay type: cell-based, human; conditions: HEK293 cells; 5 μM cis-22a, 2 h
Experimental: as §1, §2

[9] = test system: TRPV6 R470A W583F; set-up: method as in PMID 33246965; conditions: ref [47], cited from earlier work
[10] = test system: TRPV6 D580K; experiment: Whole-cell patch clamp, TRPV6 D580K; assay type: cell-based, human; conditions: HEK293 cells, 10 μM pal-PIP2 peptide, Figure 5C (substitution reduces the inhibition)
Text: (§3) N-terminally TagRFP-labeled human TRPV6 (725 aa) was kindly provided by R. Bhardwaj and M. Hediger (University of Bern, Bern, Switzerland). This variant is translated from the first ATG codon and thus deviates from the non-ATG-initiated protein which is expressed in vivo (accession number NM_018646.6) by lacking 40 amino acids of the very N-terminus. For N-terminal labeling with EYFP, TRPV6 was cloned into pEYFP-C1 (Clontech) via EcoRI and SacII restriction sites. Mutations (F468A, R470A, F472A, K484A/Q, G488R, R492A/Q, I575A, G579A, D580A/K, H582A, W583A/F, H587A, R589A, W593A, R632A/Q, R470A, W583F) were introduced using the QuickChange XL site-directed mutagenesis kit (Stratagene, San Diego, CA, USA) and Pfu DNA Polymerase (Promega, Madison, WI, USA). pTagRFP-hTRPV6 I575A was kindly provided by the lab of M. Hediger (University of Bern, Bern, Switzerland). Forward and reverse primers for site-directed mutagenesis were synthesized by Eurofins genomics GmbH (Wien, Vienna, Austria). Intactness of the constructs in terms of sequence was confirmed by sequencing (Microsynth Austria GmbH, Wien, Vienna, Austria; Eurofins genomics GmbH, Wien, Vienna, Austria). […]
(§4) Electrophysiological experiments were performed at 20 °C to 24 °C in whole-cell recording configurations of the patch clamp technique. […] The liquid junction potential was determined as 12 mV; the voltages were not adjusted. […]

[11] = test system: TRPV6 R470A W583F; experiment: Whole-cell patch clamp, TRPV6 R470A W583F; assay type: cell-based, human; conditions: HEK293 cells; 10 μM pal-PIP2 peptide; Figure 6A; compared with W583F
Text: as §3, §4

SMILES: Cc1cccc(C2CCC(N3CCN(c4cccnc4)CC3)CC2)c1.O=C(O)C(F)(F)F (stereo not drawn) [cis-22a]
- reduction of nuclear NFAT localization [1]: impeded cis-22a-based reductions in nuclear NFAT localization
- change of nuclear NFAT localization [2]: not significantly changed
- change of nuclear NFAT localization [3]: not significantly changed
- change of nuclear NFAT localization [4]: not significantly changed
- change of nuclear NFAT localization [5]: further significant reduction in the proportion of cells showing nucleus-resident NFAT
- change of nuclear NFAT localization [6]: nuclear NFAT localization was higher for cis-22a-treated cells compared to the DMSO control
- change of nuclear NFAT localization [7]: nuclear NFAT localization was higher for cis-22a-treated cells compared to the DMSO control
- NFAT localization patterns [8]: unable to change localization patterns
- inhibition by cis-22a in electrophysiological measurements ([9]; HEK293 cells, 0.1 and 10 μM cis-22a, n=6, Figure S6B): just modest inhibition
- resistance to cis-22a vs single mutants ([9]; R470A W583F, especially at the high blocker concentration): considerably higher resistance
- inhibition by cis-22a (in words) ([9]; R470A W583F): very weak inhibition

SMILES: CCCCCCCCCCCCCCCC(=O)N[C@@H](Cc1c[nH]cn1)C(=O)N[C@@H](CCCNC(=N)N)C(=O)N[C@@H](CCC(N)=O)C(=O)N[C@@H](CCCCN)C(=O)N[C@@H](Cc1c[nH]cn1)C(=O)N[C@@H](Cc1ccccc1)C(=O)N[C@@H](CCC(=O)O)C(=O)N[C@@H](CCCCN)C(=O)N[C@@H](CCCNC(=N)N)C(=O)N[C@@H](CCCNC(=N)N)C(N)=O [pal-PIP2 peptide] (Palmitoyl-HRQKHFEKRR-NH2)
- inhibitory effect of pal-PIP2 peptide vs WT [10]: interfered with the inhibitory effect of the pal-PIP2 peptide
- resistance to inhibition by pal-PIP2 peptide [11]: regained significant resistance to inhibition
